Data as given in ChEMBL document CHEMBL2311283, “Structural modifications to tetrahydropyridine-3-carboxylate esters en route to the discovery of M5-preferring muscarinic receptor orthosteric antagonists” (J Med Chem, 2013).
pKi: −log10 of the molar value.

Columns and labels:
[1] = biological target: T1, Muscarinic acetylcholine receptor M2 (Homo sapiens, UniProt P08172)
T1 sequence (P08172 whole entry): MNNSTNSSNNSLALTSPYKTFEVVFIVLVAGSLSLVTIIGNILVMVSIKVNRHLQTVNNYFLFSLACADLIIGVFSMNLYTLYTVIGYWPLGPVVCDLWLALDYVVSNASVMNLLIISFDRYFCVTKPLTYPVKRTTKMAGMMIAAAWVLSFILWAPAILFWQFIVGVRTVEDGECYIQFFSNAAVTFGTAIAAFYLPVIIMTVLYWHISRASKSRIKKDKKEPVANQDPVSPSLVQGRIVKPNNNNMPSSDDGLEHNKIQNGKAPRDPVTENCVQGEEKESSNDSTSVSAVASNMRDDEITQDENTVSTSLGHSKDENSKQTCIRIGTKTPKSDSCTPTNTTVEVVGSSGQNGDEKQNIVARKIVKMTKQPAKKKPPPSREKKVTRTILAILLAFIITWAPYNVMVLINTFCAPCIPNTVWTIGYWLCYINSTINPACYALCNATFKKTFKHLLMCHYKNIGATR

[2] = biological target: T2, Muscarinic acetylcholine receptor M4 (Homo sapiens, UniProt P08173); test: Binding affinity to human M4 muscarinic receptor
T2 sequence (P08173 whole entry): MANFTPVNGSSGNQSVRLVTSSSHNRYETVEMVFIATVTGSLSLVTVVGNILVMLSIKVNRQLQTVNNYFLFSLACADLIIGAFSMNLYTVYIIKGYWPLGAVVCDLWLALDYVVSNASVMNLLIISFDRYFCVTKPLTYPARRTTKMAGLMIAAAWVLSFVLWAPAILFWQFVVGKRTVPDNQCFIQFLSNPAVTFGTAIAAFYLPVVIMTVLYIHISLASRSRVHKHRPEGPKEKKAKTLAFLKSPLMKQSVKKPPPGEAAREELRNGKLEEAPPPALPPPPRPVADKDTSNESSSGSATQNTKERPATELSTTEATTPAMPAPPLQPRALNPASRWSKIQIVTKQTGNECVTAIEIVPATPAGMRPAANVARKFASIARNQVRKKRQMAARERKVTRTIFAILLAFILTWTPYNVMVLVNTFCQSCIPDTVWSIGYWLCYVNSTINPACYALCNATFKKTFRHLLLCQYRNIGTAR

[3] = biological target: T3, Muscarinic acetylcholine receptor M3 (Homo sapiens, UniProt P20309); test: Binding affinity to human M3 muscarinic receptor
T3 sequence (P20309 whole entry): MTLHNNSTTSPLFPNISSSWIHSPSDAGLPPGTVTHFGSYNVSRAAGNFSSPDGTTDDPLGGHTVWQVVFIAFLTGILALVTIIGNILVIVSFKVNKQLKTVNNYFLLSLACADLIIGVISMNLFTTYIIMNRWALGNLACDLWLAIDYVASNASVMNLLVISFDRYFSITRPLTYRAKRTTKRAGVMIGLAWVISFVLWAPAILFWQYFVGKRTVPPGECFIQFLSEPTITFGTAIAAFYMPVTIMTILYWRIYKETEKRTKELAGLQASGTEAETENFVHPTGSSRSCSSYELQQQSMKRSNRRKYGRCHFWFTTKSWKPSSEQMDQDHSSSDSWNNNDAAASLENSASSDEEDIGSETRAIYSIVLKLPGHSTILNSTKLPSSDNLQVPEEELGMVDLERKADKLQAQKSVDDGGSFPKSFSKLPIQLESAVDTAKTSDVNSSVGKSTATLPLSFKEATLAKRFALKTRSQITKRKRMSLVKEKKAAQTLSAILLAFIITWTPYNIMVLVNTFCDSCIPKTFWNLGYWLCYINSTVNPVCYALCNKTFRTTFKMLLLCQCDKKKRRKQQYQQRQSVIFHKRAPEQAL

[4] = biological target: T4, Muscarinic acetylcholine receptor M1 (Homo sapiens, UniProt P11229); test: biochemical; type: cell-based, CHO-K1
T4 sequence (P11229 whole entry): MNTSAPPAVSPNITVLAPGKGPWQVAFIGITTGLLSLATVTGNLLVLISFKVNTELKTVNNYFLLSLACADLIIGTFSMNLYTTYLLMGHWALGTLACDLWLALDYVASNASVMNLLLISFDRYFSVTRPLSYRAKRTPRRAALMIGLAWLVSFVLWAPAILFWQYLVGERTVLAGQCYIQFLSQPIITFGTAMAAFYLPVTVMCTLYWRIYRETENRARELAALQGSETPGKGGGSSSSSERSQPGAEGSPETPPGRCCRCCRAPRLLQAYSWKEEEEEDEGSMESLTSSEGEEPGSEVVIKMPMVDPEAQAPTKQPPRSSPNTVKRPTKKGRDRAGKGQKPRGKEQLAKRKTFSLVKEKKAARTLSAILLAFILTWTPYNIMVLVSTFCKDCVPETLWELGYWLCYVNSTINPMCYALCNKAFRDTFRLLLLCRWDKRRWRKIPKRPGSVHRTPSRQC

[5] = biological target: T2, Muscarinic acetylcholine receptor M4; test: Displacement of [3H]NMS from human M4 muscarinic receptor expressed in CHO-K1 cells; type: cell-based
[6] = biological target: T1, Muscarinic acetylcholine receptor M2; test: Displacement of [3H]NMS from human M2 muscarinic receptor expressed in CHO-K1 cells; type: cell-based
Homo sapiens [7] = organism: Homo sapiens; test: Selectivity index, ratio of Ki for human M4 muscarinic receptor to Ki for human M5 muscarinic receptor
[8] = biological target: T5, Muscarinic acetylcholine receptor M5 (Homo sapiens, UniProt P08912); test: Displacement of [3H]NMS from human M5 muscarinic receptor expressed in CHO-K1 cells; type: cell-based
T5 sequence (P08912 whole entry): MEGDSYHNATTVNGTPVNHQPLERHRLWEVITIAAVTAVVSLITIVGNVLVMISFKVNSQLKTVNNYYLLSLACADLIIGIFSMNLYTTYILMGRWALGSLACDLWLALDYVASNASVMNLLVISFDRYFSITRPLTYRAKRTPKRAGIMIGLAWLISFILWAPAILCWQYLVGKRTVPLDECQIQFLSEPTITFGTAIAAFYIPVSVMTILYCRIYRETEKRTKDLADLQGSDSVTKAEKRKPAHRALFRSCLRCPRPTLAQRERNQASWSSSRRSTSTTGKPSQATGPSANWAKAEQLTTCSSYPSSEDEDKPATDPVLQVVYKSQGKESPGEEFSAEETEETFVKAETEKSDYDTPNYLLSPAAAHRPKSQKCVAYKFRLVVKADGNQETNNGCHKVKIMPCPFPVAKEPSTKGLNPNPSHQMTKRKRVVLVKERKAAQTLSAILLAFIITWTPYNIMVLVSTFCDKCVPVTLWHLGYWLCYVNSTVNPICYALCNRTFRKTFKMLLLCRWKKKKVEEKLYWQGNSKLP

Homo sapiens [9] = organism: Homo sapiens; test: Selectivity index, ratio of Ki for human M1 muscarinic receptor to Ki for human M5 muscarinic receptor
Homo sapiens [10] = organism: Homo sapiens; test: Selectivity index, ratio of Ki for human M3 muscarinic receptor to Ki for human M5 muscarinic receptor
[11] = biological target: T3, Muscarinic acetylcholine receptor M3; test: Displacement of [3H]NMS from human M3 muscarinic receptor expressed in CHO-K1 cells; type: cell-based
[12] = biological target: T6, Muscarinic acetylcholine receptor M5 (Rattus norvegicus) (UniProt P08911); details: at 1 µM
T6 sequence (whole entry): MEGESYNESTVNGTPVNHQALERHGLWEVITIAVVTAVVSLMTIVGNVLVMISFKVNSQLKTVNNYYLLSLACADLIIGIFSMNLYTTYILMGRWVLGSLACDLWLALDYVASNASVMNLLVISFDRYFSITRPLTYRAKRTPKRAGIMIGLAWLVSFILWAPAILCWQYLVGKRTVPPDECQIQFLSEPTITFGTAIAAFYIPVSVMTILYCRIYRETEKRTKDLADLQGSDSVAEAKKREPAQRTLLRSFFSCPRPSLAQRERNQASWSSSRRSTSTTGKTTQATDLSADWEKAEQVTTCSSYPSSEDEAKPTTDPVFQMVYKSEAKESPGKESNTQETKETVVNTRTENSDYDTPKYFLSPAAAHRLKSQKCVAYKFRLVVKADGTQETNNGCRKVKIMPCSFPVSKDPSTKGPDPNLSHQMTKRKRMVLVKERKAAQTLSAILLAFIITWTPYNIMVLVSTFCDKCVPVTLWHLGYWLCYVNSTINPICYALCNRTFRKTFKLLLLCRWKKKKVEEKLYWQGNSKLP

[13] = biological target: T6, Muscarinic acetylcholine receptor M5 (Rattus norvegicus); test: Orthosteric antagonist activity at M5 muscarinic receptor in rat striatal slices assessed as inhibition of 10 uM oxotremorine-evoked [3H]DA release

For `CCN(CC)CC1CCCCN1CC(=O)N1c2ccccc2C(=O)Nc2cccnc21` (stereo not drawn) [OTENZEPAD], the pKi [1] was 7.09, the pKi [2] was 6.39 and the pKi [3] was 5.68.
`CN1CCC(c2ccccc2)=C(C(=O)OCCc2cccc3ccccc23)C1` was tested, and the pKi [4] was 4.61, the pKi [5] was < 4.00 and the pKi [6] was < 4.00. For the same compound, the Ratio Ki (Homo sapiens [7]) was > 20, the pKi [8] was 5.30 and the Ratio Ki (Homo sapiens [9]) was 4.8. The Ratio Ki (Homo sapiens [10]) was > 20 and the pKi [11] was < 4.00.
For `CN1[C@@H]2C[C@@H](OC(=O)[C@H](CO)c3ccccc3)C[C@H]1[C@@H]1O[C@@H]12`, the Imax [12] was 100% and the inhibition [13] was “Dose-dependent effect”.
